According to patent US5840722A, “Use of carboxylic acid derivatives as drugs” (BASF Aktiengesellschaft, priority 1994, dated 1998):
Where two headings read alike, the source gives them in different places.

What was measured:
[1] = target: T1, ETB receptor (Cavia porcellus, UniProt H0VTF3); test: Receptor-binding studies, ETB receptor binding assay ([125I]-RZ3, guinea pig cerebellar membranes)
T1 construct: Guinea pig cerebella were homogenized in a Potter-Elvejhem homogenizer; from tissue; host or cells: guinea pig cerebellum (membranes)
T1 sequence (H0VTF3 27-415): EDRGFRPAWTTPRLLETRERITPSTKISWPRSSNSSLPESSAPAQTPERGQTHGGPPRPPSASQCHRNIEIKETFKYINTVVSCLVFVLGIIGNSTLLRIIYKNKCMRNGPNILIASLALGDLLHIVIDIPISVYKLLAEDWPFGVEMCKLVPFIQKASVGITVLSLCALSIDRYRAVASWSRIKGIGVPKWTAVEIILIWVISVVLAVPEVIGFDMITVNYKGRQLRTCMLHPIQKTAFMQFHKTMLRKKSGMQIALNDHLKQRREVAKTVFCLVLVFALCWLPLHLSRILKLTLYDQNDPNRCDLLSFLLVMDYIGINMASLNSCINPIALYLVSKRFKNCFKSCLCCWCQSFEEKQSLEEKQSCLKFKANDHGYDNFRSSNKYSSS
Experimental: Cloned human ETA receptor-expressing CHO cells and guinea pig cerebellar membranes with>60% ETB receptors compared with ETA receptors were used for binding studies.
Guinea pig cerebella were homogenized in a Potter-Elvejhem homogenizer and obtained by differential centrifugation at 1000×g for 10 min and repeated centrifugation of the supernatant at 20,000×g for 10 min.
(§1) (ETB receptor assay) in the presence and absence of test substance. The non-specific binding was determined using 10^-7 M ET1. After 30 min, the free and the bound radioligand were separated by filtration through a GF/B glass fiber filter (Whatman, England) in a Skatron cell collector (Skatron, Lier, Norway), and the filters were washed with ice-cold tris-HCl buffer, pH 7.4 with 0.2% BSA. The radioactivity collected on the filters was quantified using a Packard 2200 CA liquid scintillation counter.
The Ki values were determined by non-linear regression analysis using the LIGAND program.

[2] = target: T2, human ETA receptor (Homo sapiens, UniProt P25101); test: Receptor-binding studies, ETA receptor binding assay ([125I]-ET1)
T2 construct: expressed in transfected cells; host or cells: CHO cells (membranes)
T2 sequence (P25101 21-427): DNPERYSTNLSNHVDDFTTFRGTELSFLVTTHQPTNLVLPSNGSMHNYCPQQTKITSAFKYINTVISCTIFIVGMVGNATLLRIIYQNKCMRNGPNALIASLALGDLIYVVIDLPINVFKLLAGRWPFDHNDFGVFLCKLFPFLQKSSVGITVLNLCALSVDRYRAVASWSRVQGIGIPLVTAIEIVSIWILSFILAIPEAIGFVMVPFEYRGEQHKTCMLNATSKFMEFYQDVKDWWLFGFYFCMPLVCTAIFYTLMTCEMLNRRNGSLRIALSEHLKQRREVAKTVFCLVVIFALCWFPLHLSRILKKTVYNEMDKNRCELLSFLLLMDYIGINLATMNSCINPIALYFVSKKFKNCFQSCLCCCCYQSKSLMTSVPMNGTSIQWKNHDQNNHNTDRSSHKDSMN
Experimental: as §1, with “After 48 h, the cells were washed with PBS and incubated with 0.05% trypsin-containing PBS for 5 min. […] The membranes were centrifuged at 20,000×g for 10 min, and the pellet was stored in liquid nitrogen. […] (ETB” for “(ETB”, “counter. The Ki values were determined by non-linear regression analysis using the LIGAND program.” for “counter.”

[3] = target: T3, endothelin receptor of subtype A (Rattus norvegicus, UniProt P26684); test: Functional in vitro assay system for endothelin receptor (subtype A) antagonists (ET1-induced intracellular calcium increase); assay type: cell-based
T3 construct: endogenous endothelin receptor of subtype A has been detected; endogenous in cells
T3 sequence (P26684 21-426): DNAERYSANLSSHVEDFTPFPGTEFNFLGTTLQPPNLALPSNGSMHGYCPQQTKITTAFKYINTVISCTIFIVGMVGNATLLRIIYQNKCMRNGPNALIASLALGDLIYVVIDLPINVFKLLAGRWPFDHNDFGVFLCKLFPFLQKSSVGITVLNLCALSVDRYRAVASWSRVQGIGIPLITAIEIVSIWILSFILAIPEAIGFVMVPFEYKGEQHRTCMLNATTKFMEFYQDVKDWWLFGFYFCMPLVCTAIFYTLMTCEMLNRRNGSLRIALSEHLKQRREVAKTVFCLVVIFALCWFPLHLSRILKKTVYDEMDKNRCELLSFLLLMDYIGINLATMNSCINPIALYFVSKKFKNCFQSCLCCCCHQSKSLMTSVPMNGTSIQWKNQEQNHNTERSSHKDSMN
Source text: Functional in vitro assay system for searching for endothelin receptor (subtype A) antagonists This assay system is a functional cell-based assay for endothelin receptors. Certain cells when stimulated with endothelin 1 (ET1) show an increase in the intracellular calcium concentration. This increase can be measured in intact cells which have been loaded with calcium-sensitive dyes. […] The cells were then washed twice with buffer A and resuspended at 2 10^6 /ml. The fluorescence signal at Ex/Em 380/510 from 2×10^5 cells per mL was recorded continuously at 30° C. The test substances were added to the cells and, after incubation with ET1 for 3 min, the maximum change in the fluorescence was determined. The response of the cells to ET1 without previous addition of a test substance served as control and was set equal to 100%.

Ki ([1]; guinea pig cerebellar membranes, 25 pM [125I]-RZ3, 25° C., 30 min, read-out: Ki ET-B) | Ki ([2]; cloned human ETA receptor-expressing CHO cell membranes, 25 pM [125I]-ET1, 25° C., 30 min, read-out: Ki ET-A) | IC50 ([3]; rat fibroblasts loaded with Fura 2-am, ET1-induced fluorescence change, 30° C., read-out: IC50) | Compound | Ki [1] | Ki [2] | IC50 [3]
– | – | – | COc1cc(OC)nc(OC(C(=O)O)C(C)(Oc2ccc(SC)cc2)c2ccccc2)n1 (stereo not drawn) [Compound 4.58] | 4.7 µM | 0.16 µM | 1 µM
3 µM | 0.25 µM | 0.74 µM | COc1cc(OC)nc(OC(C(=O)O)C(C)(Oc2ccc(C(C)C)cc2)c2ccccc2)n1 (stereo not drawn) [Compound 4.42] | – | – | –
